Literature values in patent publication US5593970A, “Heterocyclic anthracycline analogs” (priority 1994, dated 1997).

Experiments:
[1] = test system: tumor; conditions: cited from earlier work
[2] = test system: bacteria and fungi; conditions: cited from earlier work

SMILES	antitumor activity [1]	antibacterial and antifungal activity [2]
CC(=O)N1Cc2c(O)c3c(c(O)c2C(O[C@H]2C[C@H](NC(=O)C(F)(F)F)[C@H](O)[C@H](C)O2)C1)C(=O)c1ccccc1C3=O (stereo partly drawn) [N-(trifluoroacetyl)-4-demethoxy-9-azadaunorubicin]	no antitumor activity	
CC1OC2OC(=O)OC2C2=C1C(=O)c1c(O)cccc1C2=O (stereo not drawn) [kalafungin]		potent antibacterial as well as antifungal activity
C[C@@H]1O[C@@H](CC(=O)O)CC2=C1C(=O)c1c(O)cccc1C2=O [nanaomycin A]		potent antibacterial as well as antifungal activity
